| melting point | SMILES |
| --- | --- |
| 148 to 151 °C | Cc1c(C(=O)NCc2ccc(F)cc2)nn(-c2ccc(Cl)c(Cl)c2)c1-n1cccc1 |
| 104 to 108 °C | Cc1c(C(=O)N(C)Cc2ccccc2)nn(-c2ccc(Cl)cc2)c1-n1cccc1 [Compound 34, N-Benzyl-1-(4-chlorophenyl)-N,4-dimethyl-5-(1H-pyrrol-1-yl)-1H-pyrazole-3-carboxamide] |
| 85 to 88 °C | N#Cc1c(C(=O)NCc2ccncc2)nn(-c2ccc(Cl)cc2)c1-n1cccc1 [Compound 35, 1-(4-Chlorophenyl)-4-cyano-N-(pyridin-4-ylmethyl)-5-(1H-pyrrol-1-yl)-1H-pyrazole-3-carboxamide] |
| 238 to 239 °C | Cc1c(C(=O)Nc2ccc(S(N)(=O)=O)cc2)nn(-c2ccc(Cl)cc2)c1-n1cccc1 [Compound 46, 1-(4-Chlorophenyl)-4-methyl-5-(1H-pyrrol-1-yl)-N-(4-sulfamoylphenyl)-1H-pyrazole-3-carboxamide] |
| 116 to 117 °C | CCOC(=O)[C@H](C)NC(=O)CNC(=O)c1cnn(-c2ccccc2)c1-n1cccc1 [Compound 18, N-[N-[[1-Phenyl-5-(1H-pyrrol-1-yl)-1H-pyrazol-4-yl]carbonyl]glycyl]-L-alanine Ethyl Ester] |
| 207 to 210 °C | Cc1c(C(=O)Nc2nc(-c3ccc(F)cc3)cs2)nn(-c2ccc(Cl)c(Cl)c2)c1-n1cccc1 [Compound 37, 1-(3,4-Dichlorophenyl)-N-[4-(4-fluorophenyl)thiazol-2-yl]-4-methyl-5-(1H-pyrrol-1-yl)-1H-pyrazole-3-carboxamide] |
| 90 to 92 °C | CCOC(=O)[C@H](C)NC(=O)c1cnn(-c2ccccc2)c1-n1cccc1 [Compound 12, Ethyl (S)-2-[[[1-Phenyl-5-(1H-pyrrol-1-yl)-1H-pyrazol-4-yl]carbonyl]amino]propanoate] |
| 217 to 221 °C | O=C(NC12CC3CC(CC(O)(C3)C1)C2)c1cc(-n2cccc2)n(-c2ccccc2)n1 [Compound 23, N-(Adamantan-3-ol-1-yl)-1-phenyl-5-(1H-pyrrol-1-yl)-1H-pyrazole-3-carboxamide] |
| 156 to 158 °C | CN1CCN(C(=O)c2cnn(-c3ccccc3)c2-n2cccc2)CC1 [Compound 4, (4-Methylpiperazin-1-yl)[1-phenyl-5-(1H-pyrrol-1-yl)-1H-pyrazol-4-yl]methanone] |
| 93 to 94 °C | CC(C)(C)OC(=O)[C@H](Cc1ccccc1)NC(=O)c1nn(-c2ccccc2)c(-n2cccc2)c1C#N [Compound 25, tert-Butyl (S)-3-Phenyl-2-[[[4-cyano-1-phenyl-5-(1H-pyrrol-1-yl)-1H-pyrazol-3-yl]carbonyl]amino]propanoate] |
| 227 to 229 °C | N#Cc1c(C(=O)NC23CC4CC(CC(C4)C2)C3)nn(-c2ccccc2)c1-n1cccc1 |
| 174 to 177 °C | Cc1c(C(=O)N2CCOCC2)nn(-c2ccc(Cl)cc2)c1-n1cccc1 [Compound 30, [1-(4-Chlorophenyl)-4-methyl-5-(1H-pyrrol-1-yl)-1H-pyrazol-3-yl](morpholin-4-yl)methanone] |
| 102 to 105 °C | CSc1ccc(NC(=O)c2nn(-c3ccc(Cl)cc3)c(-n3cccc3)c2C)cc1 [Compound 48, 1-(4-Chlorophenyl)-N-(4-methylthiophenyl)-4-methyl-5-(1H-pyrrol-1-yl)-1H-pyrazole-3-carboxamide] |
| 139 to 141 °C | COC(=O)CNC(=O)c1cnn(-c2ccccc2)c1-n1cccc1 [Compound 11, Methyl [[[1-Phenyl-5-(1H-pyrrol-1-yl)-1H-pyrazol-4-yl]carbonyl]amino]acetate] |
| 217 to 219 °C | COC(=O)c1ccccc1NC(=O)c1nn(-c2ccc(Cl)cc2)c(-n2cccc2)c1C [Compound 43, Methyl 2-[[[1-(4-Chlorophenyl)-4-methyl-5-(1H-pyrrol-1-yl)-1H-pyrazol-3-yl]carbonyl]amino]benzoate] |
| 144 to 148 °C | Cc1c(C(=O)NCc2ccc3c(c2)OCO3)nn(-c2ccc(Cl)cc2)c1-n1cccc1 [Compound 29, N-(Benzo[d][1,3]dioxol-5-ylmethyl)-1-(4-chlorophenyl)-4-methyl-5-(1H-pyrrol-1-yl)-1H-pyrazole-3-carboxamide] |
| 141 to 145 °C | Cc1c(C(=O)NCc2ccc3c(c2)OCO3)nn(-c2ccc(Cl)c(Cl)c2)c1-n1c(C)ccc1C [Compound 38, N-(Benzo[d][1,3]dioxol-5-ylmethyl)-1-(3,4-dichlorophenyl)-4-methyl-5-(2,5-dimethyl-1H-pyrrol-1-yl)-1H-pyrazole-3-carboxamide] |
| 218 to 219 °C | O=C(c1cnn(-c2ccccc2)c1-n1cccc1)N1CCN(c2ncccn2)CC1 [Compound 7, [1-Phenyl-5-(1H-pyrrol-1-yl)-1H-pyrazol-4-yl][4-(pyrimidin-2-yl)piperazin-1-yl]methanone] |
| 158 to 160 °C | COC(=O)c1cccc(NC(=O)c2nn(-c3ccc(Cl)cc3)c(-n3cccc3)c2C)c1 [Compound 41, Methyl 3-[[[1-(4-Chlorophenyl)-4-methyl-5-(1H-pyrrol-1-yl)-1H-pyrazol-3-yl]carbonyl]amino]benzoate] |
| 197 to 198 °C | O=C(Nc1ccc(Cl)cc1)c1cnn(-c2ccccc2)c1-n1cccc1 [Compound 6, N-(4-Chlorophenyl)-1-phenyl-5-(1H-pyrrol-1-yl)-1H-pyrazole-4-carboxamide] |
| 165 to 167 °C | O=C(NN1CCCCC1)c1cnn(-c2ccccc2)c1-n1cccc1 [Compound 5, 1-Phenyl-N-(piperidin-1-yl)-5-(1H-pyrrol-1-yl)-1H-pyrazole-4-carboxamide] |
| 130 to 131 °C | CCOC(=O)N1CCN(C(=O)c2nn(-c3ccccc3)c(-n3cccc3)c2C)CC1 [Compound 26, (4-Ethoxycarbonylpiperazin-1-yl)[4-methyl-1-phenyl-5-(1H-pyrrol-1-yl)-1H-pyrazol-3-yl]methanone] |
| 189 to 193 °C | Cc1c(C(=O)NCc2ccncc2)nn(-c2ccc(Cl)cc2)c1-n1cccc1 [Compound 33, 1-(4-Chlorophenyl)-4-methyl-N-(pyridin-4-ylmethyl)-5-(1H-pyrrol-1-yl)-1H-pyrazole-3-carboxamide] |
| 109 to 111 °C | CN1CCN(C(=O)c2cnn(C)c2-n2cccc2)CC1 [Compound 3, (4-Methylpiperazin-1-yl)[1-methyl-5-(1H-pyrrol-1-yl)-1H-pyrazol-4-yl]methanone] |
| 168 to 170 °C | CCOC(=O)c1ccc(NC(=O)c2nn(-c3ccc(Cl)cc3)c(-n3cccc3)c2C)cc1 [Compound 32, Ethyl 4-[[[1-(4-Chlorophenyl)-4-methyl-5-(1H-pyrrol-1-yl)-1H-pyrazol-3-yl]carbonyl]amino]benzoate] |

| SMILES | melting point |
| --- | --- |
| CC(C)(C)OC(=O)Nc1c(C(=O)NCc2ccc(Br)cc2)cnn1-c1ccc([N+](=O)[O-])cc1 [Compound 21, N-(4-Bromobenzyl)-5-(tert-butoxycarbonylamino)-1-(4-nitrophenyl)-1H-pyrazole-4-carboxamide] | 169 to 171 °C |

— PMC9774939, “Optimization of Pyrazole Compounds as Antibiotic Adjuvants Active against Colistin- and Carbapenem-Resistant Acinetobacter baumannii” (Antibiotics, 2022)
